In the NIST ThermoML archive (doi:10.1016/j.jct.2015.07.005):
Values joined by “and” are separate entries in the source; they are usually repeats but may differ in a detail not shown here. Equal values may be shown once.

Conditions: Gas, Frequency=0.005 MHz, Spherical cavity resonance method

COC(F)(F)C(F)(F)C(F)(F)F [heptafluoropropyl methyl ether]
Conditions | speed of sound
324.96 K, 164.7 kPa | 110.67 m/s
324.97 K, 64.71 kPa | 115.86 m/s and 115.86 m/s
324.97 K, 95.55 kPa | 114.33 m/s
324.97 K, 95.56 kPa | 114.33 m/s
324.97 K, 95.57 kPa | 114.33 m/s
324.97 K, 95.59 kPa | 114.33 m/s
324.97 K, 133.44 kPa | 112.39 m/s
324.97 K, 133.45 kPa | 112.39 m/s
324.97 K, 164.69 kPa | 110.67 m/s
324.97 K, 164.72 kPa | 110.67 m/s
349.97 K, 63.93 kPa | 120.9 m/s
349.97 K, 63.94 kPa | 120.9 m/s
349.97 K, 154.62 kPa | 117.37 m/s
349.97 K, 154.64 kPa | 117.37 m/s
349.97 K, 235.72 kPa | 113.96 m/s
349.97 K, 235.74 kPa | 113.96 m/s
349.97 K, 235.77 kPa | 113.96 m/s
349.97 K, 317.58 kPa | 110.17 m/s
349.97 K, 317.59 kPa | 110.17 m/s
349.97 K, 317.63 kPa | 110.17 m/s
374.95 K, 63.1 kPa | 125.6 m/s and 125.6 m/s
374.95 K, 63.11 kPa | 125.6 m/s
374.95 K, 160.58 kPa | 122.61 m/s
374.95 K, 160.6 kPa | 122.61 m/s
374.95 K, 285.28 kPa | 118.5 m/s
374.95 K, 285.32 kPa | 118.5 m/s
374.95 K, 285.36 kPa | 118.5 m/s
374.95 K, 400.83 kPa | 114.37 m/s
374.95 K, 400.86 kPa | 114.37 m/s
374.95 K, 400.9 kPa | 114.36 m/s
374.95 K, 510.48 kPa | 110.03 m/s
374.95 K, 510.5 kPa | 110.03 m/s
374.95 K, 632.78 kPa | 104.58 m/s
374.95 K, 632.8 kPa | 104.58 m/s
374.95 K, 632.82 kPa | 104.58 m/s
374.96 K, 63.11 kPa | 125.6 m/s
374.96 K, 160.58 kPa | 122.61 m/s
399.99 K, 67.78 kPa | 129.91 m/s
399.99 K, 197.55 kPa | 126.68 m/s
399.99 K, 349.57 kPa | 122.65 m/s
399.99 K, 650.2 kPa | 113.69 m/s
399.99 K, 650.23 kPa | 113.69 m/s
399.99 K, 806.55 kPa | 108.28 m/s
399.99 K, 953.71 kPa | 102.52 m/s
399.99 K, 953.73 kPa | 102.52 m/s
399.99 K, 1130.3 kPa | 94.29 m/s
400 K, 67.78 kPa | 129.91 m/s
400 K, 197.63 kPa | 126.68 m/s
400 K, 197.66 kPa | 126.68 m/s
400 K, 349.52 kPa | 122.65 m/s
400 K, 349.53 kPa | 122.65 m/s
400 K, 502.98 kPa | 118.27 m/s
400 K, 503.01 kPa | 118.27 m/s
400 K, 503.03 kPa | 118.27 m/s
400 K, 805.95 kPa | 108.3 m/s
400 K, 805.97 kPa | 108.3 m/s
400 K, 805.99 kPa | 108.3 m/s
400 K, 806.53 kPa | 108.28 m/s
400 K, 806.58 kPa | 108.28 m/s
400 K, 953.71 kPa | 102.52 m/s
400 K, 1130.2 kPa | 94.3 m/s
424.94 K, 60.05 kPa | 134.29 m/s
424.94 K, 60.06 kPa | 134.29 m/s
424.94 K, 200.53 kPa | 131.44 m/s
424.94 K, 200.58 kPa | 131.44 m/s
424.94 K, 407.75 kPa | 127 m/s
424.94 K, 407.78 kPa | 127 m/s
424.94 K, 407.79 kPa | 127 m/s
424.94 K, 407.83 kPa | 127 m/s
424.94 K, 603.76 kPa | 122.51 m/s
424.94 K, 603.77 kPa | 122.51 m/s
424.94 K, 603.81 kPa | 122.51 m/s
424.94 K, 802.02 kPa | 117.61 m/s
424.94 K, 802.08 kPa | 117.6 m/s
424.94 K, 802.15 kPa | 117.6 m/s
424.94 K, 1005.8 kPa | 112.1 m/s
424.94 K, 1006 kPa | 112.1 m/s
424.94 K, 1006.1 kPa | 112.09 m/s
424.94 K, 1202.6 kPa | 106.2 m/s and 106.21 m/s
424.94 K, 1202.7 kPa | 106.2 m/s
424.94 K, 1393 kPa | 99.76 m/s
424.94 K, 1393.1 kPa | 99.76 m/s
424.94 K, 1393.2 kPa | 99.75 m/s
424.94 K, 1607.6 kPa | 91.22 m/s
424.94 K, 1607.7 kPa | 91.21 m/s
424.94 K, 1608.4 kPa | 91.18 m/s
424.94 K, 1608.5 kPa | 91.17 m/s
424.94 K, 1608.7 kPa | 91.17 m/s
449.95 K, 64.75 kPa | 138.25 m/s
449.95 K, 64.76 kPa | 138.25 m/s
449.95 K, 208.64 kPa | 135.84 m/s
449.95 K, 208.65 kPa | 135.84 m/s
449.95 K, 396.59 kPa | 132.57 m/s
449.95 K, 396.63 kPa | 132.57 m/s
449.95 K, 396.66 kPa | 132.57 m/s
449.95 K, 606.05 kPa | 128.76 m/s
449.95 K, 606.08 kPa | 128.76 m/s
449.95 K, 606.12 kPa | 128.76 m/s
449.95 K, 606.24 kPa | 128.76 m/s
449.95 K, 606.26 kPa | 128.76 m/s
449.95 K, 606.27 kPa | 128.76 m/s
449.95 K, 809.63 kPa | 124.87 m/s
449.95 K, 809.64 kPa | 124.87 m/s
449.95 K, 1001.1 kPa | 121.03 m/s and 121.04 m/s
449.95 K, 1209.6 kPa | 116.6 m/s
449.95 K, 1209.7 kPa | 116.6 m/s
449.95 K, 1413.8 kPa | 111.99 m/s
449.95 K, 1623.9 kPa | 106.9 m/s
449.96 K, 1001.1 kPa | 121.04 m/s
449.96 K, 1624.3 kPa | 106.89 m/s
475 K, 67.47 kPa | 142.11 m/s
475 K, 67.48 kPa | 142.11 m/s
475 K, 67.49 kPa | 142.12 m/s
475 K, 67.62 kPa | 142.11 m/s
475 K, 67.64 kPa | 142.11 m/s
475 K, 189.2 kPa | 140.43 m/s
475 K, 189.28 kPa | 140.42 m/s
475 K, 395.98 kPa | 137.47 m/s
475 K, 395.99 kPa | 137.47 m/s
475 K, 396.05 kPa | 137.47 m/s
475 K, 396.11 kPa | 137.47 m/s
475 K, 396.13 kPa | 137.47 m/s
475 K, 396.16 kPa | 137.47 m/s
475.01 K, 396.09 kPa | 137.47 m/s
475.01 K, 396.11 kPa | 137.47 m/s
475.01 K, 587.06 kPa | 134.67 m/s
475.01 K, 795.76 kPa | 131.5 m/s
475.01 K, 1005.5 kPa | 128.23 m/s
475.01 K, 1197.2 kPa | 125.14 m/s
475.01 K, 1402 kPa | 121.75 m/s
475.01 K, 1402.1 kPa | 121.75 m/s
475.02 K, 795.76 kPa | 131.5 m/s
475.02 K, 1005.5 kPa | 128.23 m/s
475.02 K, 1197.2 kPa | 125.14 m/s
475.02 K, 1402.1 kPa | 121.75 m/s
475.02 K, 1583.1 kPa | 118.65 m/s
475.02 K, 1583.2 kPa | 118.65 m/s
500.01 K, 62.05 kPa | 145.96 m/s
500.01 K, 62.06 kPa | 145.96 m/s
500.01 K, 62.27 kPa | 145.95 m/s
500.01 K, 192.99 kPa | 144.43 m/s
500.01 K, 193.25 kPa | 144.42 m/s
500.01 K, 193.35 kPa | 144.42 m/s
500.01 K, 400.4 kPa | 141.96 m/s
500.01 K, 400.43 kPa | 141.96 m/s
500.01 K, 400.48 kPa | 141.96 m/s
500.01 K, 400.64 kPa | 141.97 m/s
500.01 K, 400.67 kPa | 141.97 m/s
500.01 K, 605.81 kPa | 139.49 m/s
500.01 K, 804.2 kPa | 137.05 m/s
500.02 K, 400.69 kPa | 141.97 m/s
500.02 K, 605.7 kPa | 139.49 m/s
500.02 K, 804.24 kPa | 137.05 m/s
500.02 K, 804.31 kPa | 137.05 m/s
500.02 K, 1002.8 kPa | 134.57 m/s
500.02 K, 1206.9 kPa | 131.99 m/s and 131.98 m/s
500.02 K, 1207 kPa | 131.98 m/s
500.02 K, 1400.6 kPa | 129.51 m/s and 129.5 m/s
500.02 K, 1400.7 kPa | 129.5 m/s
500.02 K, 1593.1 kPa | 127 m/s
500.03 K, 1593.1 kPa | 127.01 m/s and 127 m/s
